Molecule CC1CCC2(OC1)OC1CC3C4CCC5CC(O)CCC5(C)C4C=CC3(C)C1C2C (configuration not stated) has a melting point of 179 to 181 °C. In the case of CCNc1cccc(NC(=O)C(=O)OCC)c1C#N, the melting point is reported as 99 to 102 °C. COc1c2c(c(OC)c(OC)c1OC)CCC(CCOc1ccccn1)CC2 gave a melting point of 132 to 135 °C. In the case of COc1ccc(C2(C)CCc3cc(OC)ccc3C2(O)C#CCCCCOC2CCCCO2)cc1 (configuration not stated), the melting point is reported as 80 to 82 °C. O=C(NC1CCCCC1)c1ccn2nc(-c3ccccc3)c(-c3cccc(Cl)c3)c2n1 gave a melting point of 160 to 161 °C. Work on CC(=CC(N)[C@@H]1CN(c2ccc(-c3cccnc3)cn2)C(=O)O1)[N+](=O)[O-] (some centres not stated) yielded a melting point of 207 °C. Molecule O=C(O)c1ccc2nc(-n3nc4c(c3O)-c3ccccc3CC4)sc2c1 has a melting point of over 280 °C. Work on CC(C(=O)O)c1ccc2c(c1)C(=O)Cc1ccc(Cl)cc1S2 (configuration not stated) yielded a melting point of 142 to 143 °C. In the case of COc1cc(CN2C(=O)C3(COc4cc5c(cc43)OCCO5)c3ccccc32)cc(OC)c1 (configuration not stated), the melting point is reported as 192 to 195 °C. COc1ccc(CNc2ccccc2C)cc1O gave a melting point of 104 to 105 °C. Molecule CCCc1nc(SC(F)F)c(C(=O)O)n1Cc1ccc(-c2ccccc2S(=O)(=O)NC(=O)NCc2ccccc2Cl)cc1 has a melting point of 134 °C. CN(CC(=O)O)C(=O)C(C)(C)Oc1ccc(C(=O)c2ccc(Cl)cc2)cc1 showed a melting point of 186 to 187 °C. COc1c(C)c2c(c(O)c1C/C=C(\C)C1CCCC1C(=O)O)C(=O)OC2 (configuration not stated) showed a melting point of 157 to 158 °C. For COc1cccc2c1CCc1nc(-c3ccncc3)oc1-2, the melting point was 158 °C. Work on CC(O)CCSC(=S)Nc1ccc(Cl)cn1 (configuration not stated) yielded a melting point of 120 °C. CCOC(=O)c1c(CC)nn2ccc3c(c12)CCO3 gave a melting point of 110 to 111 °C. For CCOC(=O)c1cn(CC)c2c(C)c(F)c(F)cc2c1=O, the melting point was 177 to 180 °C. For CC(=O)N[C@@H]1[C@@H](CCO)CC(C(=O)O)=C[C@H]1OC(C)C, the melting point was 114 to 115 °C. In the case of CC(C)(C)OC(=O)N1C[C@@H]2C[C@H]1C(=O)N2C(C)(C)C, the melting point is reported as 167 to 168 °C. Nc1nc(N)c(-c2cccc(Cl)c2Cl)c(CO)n1 showed a melting point of 173 to 176 °C. Work on O=C(c1ccc(C2=CCCCC2)cc1)N1Cc2cccn2Cc2ccccc21 yielded a melting point of 66 °C. For COc1ccc2[nH]c3c(c2c1[N+](=O)[O-])CCC3O (configuration not stated), the melting point was 230 °C. C=C=CP1(=O)OCC(C)(C)CO1 gave a melting point of 128 to 133 °C. Molecule CCN(CC)C(=O)CCc1nc(-c2ccc([N+](=O)[O-])cc2)nc2ccccc12 has a melting point of 168 °C. For CCOc1cc2ncc(C#N)c(Nc3ccc(OCc4ccccc4)c(Cl)c3)c2cc1NC(=O)CC(CN1CCCC1)N1CCCC1 (configuration not stated), the melting point was 85 to 87 °C. Work on CC(=O)Nc1cccc(NC(=O)Cc2ccc(-n3c(-c4cccnc4N)nc4ccc(-c5cccnc5)nc43)cc2)c1 yielded a melting point of 142 to 144 °C. With NC(=O)C(Cc1ccccc1)=NNc1ccc(C(O)(C(F)(F)F)C(F)(F)F)cc1 the melting point was 211 to 213 °C. In the case of CCN(CC)CC(=O)OC1CC2(C)C(C(C)=O)CCC2C2CCC3CC(O)C=CC3(C)C12 (configuration not stated), the melting point is reported as 134 to 138 °C. Molecule Cc1cnc(CNC(=O)c2sc(-n3cnn(Cc4ccc(F)cc4)c3=O)nc2C)cn1 has a melting point of 188 to 189 °C. Molecule COc1ccc2cc(C3=CCNCC3)sc2c1 has a melting point of 124 to 127 °C. CS(=O)(=O)OCC1CN(c2ccc3ccccc3c2)C(=O)O1 (configuration not stated) showed a melting point of 169 to 172 °C. In the case of COC(=O)c1ccc(-c2ccccc2)cc1S(=O)(=O)NC(=O)Nc1nc(C)nc(OC)n1, the melting point is reported as 198 to 200 °C. Molecule CC1(C)CC(=O)C(C(=O)c2ccc(Cl)cc2[N+](=O)[O-])C(=O)N1 (configuration not stated) has a melting point of 162 °C. O=C(Oc1ccc(N2c3ccccc3S(=O)(=O)c3ccccc32)cc1)c1ccccc1 gave a melting point of 233 to 235 °C. In the case of Cc1c(-c2ccccc2)sc2ccc(Cl)cc12, the melting point is reported as 108 to 110 °C. Work on COc1ncccc1Nc1c(NC(NC(=O)c2cc(F)cc(F)c2)C(C)(C)C)c(=O)c1=O (configuration not stated) yielded a melting point of 221 to 223 °C. Molecule COC1=C(OC)C(=O)C(CCCCC[C@H]2CC[C@H](O)CC2)=C(C)C1=O has a melting point of 49 to 51 °C. CN(c1nccc(-n2nnc3ccccc32)n1)[C@H]1CC[C@H](N(C)S(C)(=O)=O)CC1 gave a melting point of 204 °C. Work on CCC(C=CC(C)C1CCC2C3CCC4=CC(=O)CCC4(C)C3CCC12C)C(C)C (configuration not stated) yielded a melting point of 121 to 123 °C. For Cn1nc(NC(=O)Nc2ccccc2)nc1NCCCOc1cccc(CN2CCCCC2)c1, the melting point was 137 to 139 °C. With C=CCNc1nc(N2CCc3ccccc3CC2)c(C#N)c(=O)n1CC=C the melting point was 181 to 182 °C. In the case of CCCCN(CCCC)Cc1nc(-c2ncn3c2CN(C)C(=O)c2cc(F)ccc2-3)no1, the melting point is reported as 137 to 140 °C. CN(CCF)c1nc2cc(NC(=O)c3c(C(=O)N4CC(F)C4)cnn3C)ccn2n1 showed a melting point of 233 to 236 °C. Molecule CCC(=O)Nc1cc(C2=NNC(=O)CC2C)ccc1N1CCOCC1 (configuration not stated) has a melting point of 193 to 196 °C. With Nc1cccc(-c2ccc(CCN3CCN(c4nnnn4-c4ccccc4)CC3)cc2)n1 the melting point was 212 to 214 °C. COC(=O)CCCc1cc2cc(Cl)ccc2n1S(=O)(=O)c1cccc(OC)c1 gave a melting point of 107 to 109 °C. Molecule CC(C)c1nnn(-c2c(Cl)cccc2Cl)c1CO has a melting point of 154 to 155 °C. With COc1ccc(C=C2C(=O)N(C3=NCCS3)c3ccccc32)cc1 the melting point was 164 to 167 °C. With Cc1cccn2c(=O)c(C(=O)NC3CCCC3)cnc12 the melting point was 170 to 171 °C. Molecule CCC1(N)CCN(c2c(F)c(N)c3c(=O)c(C(=O)O)cn(C4CC4)c3c2F)C1 (configuration not stated) has a melting point of 205 to 206 °C. Molecule COC(=O)c1ccc(C=Cc2ccc(OC)cc2)nc1 has a melting point of 170 °C. For O=C(Nc1ccc(-n2nc(C(F)(F)F)cc2-c2cccnc2)cc1)c1ccccc1F, the melting point was 138 to 140 °C. For COc1ccc(Cn2c(=O)c3ccccc3n(CCCCCCl)c2=O)cc1, the melting point was 110 to 111 °C. Work on O=c1[nH]c2cc(Cl)c(-n3cccc3)cc2cc1P(=O)(O)O yielded a melting point of 195 to 200 °C. For COc1c(C)c(N)c2c(c1C)C(c1ccc(C(C)C)cc1)C(C)(C)O2 (configuration not stated), the melting point was 111 to 112 °C. Molecule COc1ccc(C2Cc3ccccc3N=C(C)N2C)cc1 (configuration not stated) has a melting point of 130 to 132 °C. Cc1cccc(-c2cn(C)cc(-c3cccc(C)c3)c2=O)c1 showed a melting point of 148 to 150 °C. N#CCCNC(=O)c1cccc(-c2ccc3c(c2)C(Oc2cccc(C(F)(F)F)c2)CC3)c1 (configuration not stated) showed a melting point of 120 to 121 °C. For COC(=O)c1ccc(OC)c2oc(/C=C\C(=O)O)cc12, the melting point was 175 to 178 °C. Molecule Cc1c(-c2ccc(OCC3CC3)cc2)nc2n(Cc3c(F)cccc3F)cc(-c3ccccc3)c(=O)n12 has a melting point of 210 to 214 °C. Cc1c(Sc2ccc(Cl)cc2)nn(-c2ccccc2)c(=O)c1C#N gave a melting point of 180 to 182 °C. Work on CCc1ccc(C(=O)c2ccccc2C(=O)O)c(CC)c1 yielded a melting point of 115 to 118 °C. Work on COc1cc(OC)c(-c2nccs2)cc1/C=C/C(=O)c1ccc(C(=O)O)cc1 yielded a melting point of over 260 °C. With COC(=O)c1ccc2c(Br)cccc2c1 the melting point was 65 to 68 °C. CCC1CCc2cc(CC(=O)O)ccc2O1 (configuration not stated) showed a melting point of 88 to 90 °C. c1ccc(-c2cc[nH]c2-c2ccccc2)cc1 gave a melting point of 130 to 131 °C. O=C(O)[C@]12CCCC[C@H]1CCc1ccccc12 (relative stereo) showed a melting point of 142 to 144 °C. For Oc1cccc2c1OCCCO2, the melting point was 112 to 114 °C. Molecule CCCN(C)CCCCC1CCN(S(=O)(=O)c2ccc(C(F)(F)F)cc2)CC1 has a melting point of 73 to 74.8 °C. O=S1(=O)c2cccc3cccc(c23)N1CCCN1CCN(c2ccc(Cl)cc2)CC1 showed a melting point of 120 °C. Cn1cc(S(=O)(=O)C(F)(F)F)c(-c2ccc(Cl)cc2)c1Cl gave a melting point of 117 to 119 °C. With CCOC(=O)CC1N(c2c(C)cccc2C)C(=N)C(C)N1c1c(C)cccc1C (configuration not stated) the melting point was 116 to 119 °C. Work on CC(C)(C)c1cc(CCCCCCc2cc(C(C)(C)C)c(O)c(C(C)(C)C)c2)cc(C(C)(C)C)c1O yielded a melting point of 147 to 149 °C. Molecule Cc1cc(C2=C(C=CC3CC(O)CC(=O)O3)C(C)(C)CC(O)C2)ccc1F (configuration not stated) has a melting point of 77 to 79 °C. For N#CC(C#N)=C(O)c1ccc(Oc2ccccc2)cc1, the melting point was 160 to 162 °C. In the case of COc1ccc2c(=O)[nH]c(-c3ccc(OCCO)c(-c4ccc(S(C)=O)cc4)n3)nc2c1 (configuration not stated), the melting point is reported as 266 to 267 °C. For C=CCOc1ccc(C(=O)C=Cc2cc(OC)c(CCCC)c(OC)c2)cc1, the melting point was 74 to 75 °C. With CC(C)n1nc(-c2cc(C#N)c(C(=O)O)nc2-c2ccccc2)ccc1=O the melting point was 196 to 198 °C. COc1cc(C2Cc3ccccc3-c3nc(N)c4ccccc4c32)cc(OC)c1OC (configuration not stated) gave a melting point of 272 °C. Work on CCc1nc2c(N3CCOCC3)ncn(CC)c-2n1 yielded a melting point of 103 to 107 °C. With CC(C)N1N=C(c2ccc3c(c2)CCN(C2CCC2)CC3)CCC1=O the melting point was 140 to 141 °C. Work on CCC(NC(Cc1cccnc1C)=NC#N)c1ccccc1 (configuration not stated) yielded a melting point of 52 to 54 °C. With CNC(=O)c1ccc(F)c2c1CC(N(CCCc1c[nH]c3ccc(F)cc13)C1CCC1)CO2 (configuration not stated) the melting point was 132 °C. N#CNC(=S)Nc1ccc(Cl)cc1 gave a melting point of over 250 °C. Cc1cccc(-c2nc(C(C)C)[nH]c2-c2cccc(-c3cnn(C)c3)c2)n1 gave a melting point of 84 to 86 °C. CCCn1c(N)c(N=O)c(=O)n(CC2CCCCC2)c1=O showed a melting point of 225 to 226 °C. Molecule COCC(Cl)c1nc2c(C(F)(F)F)cccc2c(O)c1C(=O)Nc1nccs1 (configuration not stated) has a melting point of 186 °C. For CCOc1cc(C=O)cc2c1OC1(C=C2Br)CCN(C(=O)OC(C)(C)C)CC1, the melting point was 148 to 150 °C. In the case of CCCCNCc1ccc2cc(O)ccc2c1, the melting point is reported as 108 to 112 °C. O=C1N(c2cc(Cl)nc(Cl)c2)C(=O)[C@@]2(Cc3ccc(OC(F)(F)F)cc3)C[C@H](n3cccc3)CN12 gave a melting point of 130 °C. With O=S1(=O)c2cccc3cccc(c23)N1CCN1CC=C(c2c[nH]c3ccccc23)CC1 the melting point was 208 °C. With Cc1ccc(-c2nnc(N3CCC4(CC3)OCCO4)nc2-c2ccc(C)cc2)cc1 the melting point was 169 to 170 °C. With CC(=O)Nc1cccc(-c2ccc3nc(-c4cccnc4N)n(-c4ccc(CNS(=O)(=O)c5cn(C)cn5)cc4)c3n2)c1 the melting point was 190 to 192 °C. In the case of CSc1cc(C(C)(C)C)c(O)c(C(=O)Nc2ccc(S(=O)(=O)C(F)(F)F)cc2Cl)c1C, the melting point is reported as 156 °C. For COC(=O)C1=Cc2cc(-c3ccc(N4CCOCC4)cc3)ccc2SCC1, the melting point was 154 to 156 °C. Molecule CC(O)Cn1cncn1 (configuration not stated) has a melting point of 110 to 112 °C. Molecule CC(C)n1nc(-c2nc(NCCN(C)C)c(N)nc2-c2ccccc2)ccc1=O has a melting point of 188 to 189 °C.

From a melting point compilation (Tetko et al.; mined from patent text by program, amines drawn as free bases though some values may be those of a salt)
